Values after ≈ are worked out from the molar mass of the structure shown.
Assay: Antitumor activity against human NCI60 cells
Format: functional

## O=C1C=C2S[C@H]3C[C@]2(C=C1Br)C1=C(N3)C(=O)c2[nH]cc3ccnc1c23 [DISCORHABDIN Q]
  GI50: 0.5 µg/mL (≈ 1.21 µM)

— ChEMBL document CHEMBL1141832, “A new discorhabdin from two sponge genera” (1999)
